Paper PMC10235067, “Increased renal elimination of endogenous and synthetic pyrimidine nucleosides in concentrative nucleoside transporter 1 deficient mice” (Nature Communications, 2023)

Assays:
CNT1 [1] = target: T1, CNT1 (Mus musculus, UniProt E9PXX9); settings: Slc28a1+/+ (CNT1 WT) mice, urine, one value per animal; Figure 2D-F source data
T1 sequence (E9PXX9 1-648): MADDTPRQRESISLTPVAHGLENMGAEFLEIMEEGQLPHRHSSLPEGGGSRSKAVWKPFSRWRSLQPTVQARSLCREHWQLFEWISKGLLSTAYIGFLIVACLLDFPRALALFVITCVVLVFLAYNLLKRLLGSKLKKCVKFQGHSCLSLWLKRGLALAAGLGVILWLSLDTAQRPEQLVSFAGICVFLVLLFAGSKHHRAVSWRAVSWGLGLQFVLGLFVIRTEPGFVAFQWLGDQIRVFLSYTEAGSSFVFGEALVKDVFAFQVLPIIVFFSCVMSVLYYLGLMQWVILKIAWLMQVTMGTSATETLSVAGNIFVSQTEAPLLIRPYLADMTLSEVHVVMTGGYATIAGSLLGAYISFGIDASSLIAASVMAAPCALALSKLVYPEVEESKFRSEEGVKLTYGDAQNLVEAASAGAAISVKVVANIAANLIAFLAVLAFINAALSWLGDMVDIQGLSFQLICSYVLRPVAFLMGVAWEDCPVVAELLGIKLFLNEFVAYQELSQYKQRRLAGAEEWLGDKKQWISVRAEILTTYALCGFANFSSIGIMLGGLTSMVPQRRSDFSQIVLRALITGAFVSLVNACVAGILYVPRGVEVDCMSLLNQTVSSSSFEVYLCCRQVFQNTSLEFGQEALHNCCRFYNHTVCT
Protocol: (§1) Linearity was established for analytes over the concentration ranges observed and the lower limit of quantification of the LC–MS/MS assay was approximately 0.1 ng/ml for each analyte (Fig. S2).
(§2) Standard solutions of all nucleotide targets were serially diluted to generate calibration solutions at concentrations of 0.0, 0.0001, 0.001, 0.01, 0.1, 1.0, and 10 µg/ml. Urine samples were prepared by adding 20 µL of urine solution to 80 µL of 50:50 H2O:MeOH containing internal standard, vortexing and centrifuging at 20,000 × g; then, 50 µL aliquots were placed into glass vials, dried in a SpeedVac and reconstituted in 5% MeOH with 0.1% formic acid for injection.
(§3) Samples were quantified using a heated electrospray ionization source (HESI) on a Thermo Scientific TQS Quantiva triple quadrupole mass spectrometer, and separation was achieved using a Thermo Scientific Ultimate 3000 HPLC equipped with an Agilent 120 SB-C18 reversed-phase column (2 × 100 mm, 2.7 µm particle size) maintained at 40 °C. […] For all experiments, the capillary voltage was set to 4.5 kV with a capillary temperature of 350 °C, a vaporizer temperature of 100 °C, a sheath gas flow of 12, an auxiliary gas flow of 13, and a 1.6 sweep gas. For selected reaction monitoring (SRM) mode, Q1 and Q3 were set to 0.7 full width at half maximum (FWHM) resolution, a cycle time of 0.8 s, and a CID gas pressure of 1.5 mTorr.

CNT1 [2] = settings: for fold increase of content in urine of Slc28a1-/- mice: Slc28a1-/- vs Slc28a1+/+, urine collected over 12 h starvation, 8-week-old mice, n = 6
Protocol: as §1, §2, §3

[3] = test system: dihydropyrimidine dehydrogenase (DPD); settings: cited from earlier work

| SMILES | fold increase of content in urine of Slc28a1-/- mice (CNT1 [2]) | other results |
| --- | --- | --- |
| Nc1ncnc2c1ncn2[C@H]1C[C@H](O)[C@@H](CO)O1 [deoxyadenosine] |  | Urine level of nucleoside / deoxynucleoside / nucleobase, CNT1 WT Urine (individual mice) (CNT1 [1]): 0; Concentration in urine (CNT1 [2]; Slc28a1+/+ and Slc28a1-/- mice, 12 h starvation): undetectable |
| O=c1[nH]cc(F)c(=O)[nH]1 [5’-fluorouracil] |  | share of elimination mediated by DPD through hepatic metabolism [3]: 80% |
| Nc1ccn([C@H]2C[C@H](O)[C@@H](CO)O2)c(=O)n1 [Deoxycytidine] | 44.8 fold |  |
| Nc1ccn([C@@H]2O[C@H](CO)[C@@H](O)[C@H]2O)c(=O)n1 [cytidine] | 52.9 fold |  |
| Cc1cn([C@H]2C[C@H](O)[C@@H](CO)O2)c(=O)[nH]c1=O [Thymidine] | 7.5 fold |  |
| Nc1nc2c(ncn2[C@@H]2O[C@H](CO)[C@@H](O)[C@H]2O)c(=O)[nH]1 [Guanosine] |  | concentration in urine, Slc28a1+/+ vs Slc28a1-/- (CNT1 [2]; 12 h starvation): not significantly different |
| O=c1ccn([C@@H]2O[C@H](CO)[C@@H](O)[C@H]2O)c(=O)[nH]1 [uridine] | 5.9 fold |  |
